According to patent publication US20230099344A1, “COMPOUNDS AND METHODS FOR THE TARGETED DEGRADATION OF IRAK-4” (Arvinas Operations, Inc., priority 2021, published 2023):

How the values were obtained:
Assay type in all cases: cell-based
IL6 [1] = experiment: LPS stimulated IL6 inhibition assay in PBMC; settings: human PBMCs, LPS stimulation, compound overnight, IL6 by MSD after 24 hrs; for Dmax: read-out: LPS Stim IL6 inhibition Dmax; for IC50: read-out: LPS stim IL6 inhibition IC50
Protocol: (§1) IL-1β, LPS, or R848 Stimulated IL6 Inhibition and IL-1β Stimulated IL8 Inhibition Assay
(§2) Human PBMC cells were seeded at 2.0×10^6 cells/mL, treated with compound overnight, and dosed with the EC50 concentration of each stimulant (either IL-1B. LPS, or R848) was determined for each donor. After 24 hrs, media was collected and analyzed by MSD for IL6 and/or IL8 levels.

IL6 [2] = experiment: R848 stimulated IL6 inhibition assay in PBMC; settings: human PBMCs, R848 stimulation, compound overnight, IL6 by MSD after 24 hrs; for Dmax: Homo sapiens, 24 h, read-out: R848 stim IL6 inhibition Dmax; for IC50: read-out: R848 stim IL6 inhibition IC50
Protocol: as §1, §2

IRAK-4 = biological target: T1, IRAK-4 (Homo sapiens, UniProt Q9NWZ3); experiment: IRAK-4 ELISA, PBMC degradation; set-up: endogenous in cells; host or cells: PBMC; settings: treated overnight
T1 sequence (Q9NWZ3 1-460): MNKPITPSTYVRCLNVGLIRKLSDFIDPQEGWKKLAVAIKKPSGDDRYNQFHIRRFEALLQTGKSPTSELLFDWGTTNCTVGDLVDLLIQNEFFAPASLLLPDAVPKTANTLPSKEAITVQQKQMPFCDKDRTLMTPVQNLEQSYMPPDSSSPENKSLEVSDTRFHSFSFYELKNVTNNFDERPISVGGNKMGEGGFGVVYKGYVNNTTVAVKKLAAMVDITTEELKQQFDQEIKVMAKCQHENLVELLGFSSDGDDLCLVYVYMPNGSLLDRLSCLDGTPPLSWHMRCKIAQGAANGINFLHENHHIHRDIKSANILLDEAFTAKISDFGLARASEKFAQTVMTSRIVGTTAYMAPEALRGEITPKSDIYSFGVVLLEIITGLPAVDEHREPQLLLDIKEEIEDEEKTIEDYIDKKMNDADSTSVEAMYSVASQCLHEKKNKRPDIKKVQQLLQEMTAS
In short: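 ELISA quantification of cellular IRAK-4 after compound treatment overnight; PBMC were plated at 2×10^6/ml, OCI-Ly10 at 1×10^6/ml.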

IC50 (IL6 [1]; Homo sapiens, PBMC, 24 h) | IC50 (IL6 [2]; PBMC) | DC50 (IRAK-4) | Dmax (IRAK-4) | PBMC DC90 (IRAK-4) | IC50 (IL6 [1]) | IC50 (IL6 [2]) | PBMC Dmax (IRAK-4) | Compound | Dmax (IL6 [1]; Homo sapiens, PBMC, 24 h) | Dmax (IL6 [2]; PBMC) | LPS Stim IL6 inhibition Dmax (IL6 [1]) | R848 stim IL6 inhibition Dmax (IL6 [2])
10 to 50 nM | 10 to 50 nM | < 1 nM | ≥ 90% | A (A represents a DC90 value <10.0 nM) |  |  |  | O=C1CCC(N2Cc3c(F)cc(N4CC(F)(CN5CCC(n6cc7cc(NC(=O)c8cnn9cccnc89)c(OCC8CC8)cc7n6)CC5)C4)cc3C2=O)C(=O)N1 (stereo not drawn) [Example 268, N-[6-(cyclopropylmethoxy)-2-[1-({1-[2-(2,6-dioxopiperidin-3-yl)-7-fluoro-3-oxo-2,3-dihydro-1H-isoindol-5-yl]-3-fluoroazetidin-3-yl}methyl)piperidin-4-yl]-2H-indazol-5-yl]pyrazolo[1,5-a]pyrimidine-3-carboxamide] | 70 to 80% | ≥ 90% |  | 
< 10 nM | 10 to 50 nM | 1 to 5 nM | ≥ 90% | A (A represents a DC90 value <10.0 nM) |  |  |  | O=C1CCC(N2C(=O)c3ccc(N4CCN(C[C@H]5CC[C@H](n6cc7cc(NC(=O)c8cnn9cccnc89)c(OCC8CC8)cc7n6)CC5)CC4)cc3C2=O)C(=O)N1 (stereo partly drawn) [Example 375] | 70 to 80% | ≥ 90% |  | 
10 to 50 nM | 10 to 50 nM | < 1 nM | ≥ 90% | A (A represents a DC90 value <10.0 nM) |  |  |  | CC(C)Oc1cc2c(cc1NC(=O)c1cnn3cccnc13)CN(C1CCN(CC3(O)CCN(c4ccc5c(c4)C(=O)N(C4CCC(=O)NC4=O)C5=O)CC3)CC1)C2=O (stereo not drawn) [Example 109] | 70 to 80% | ≥ 90% |  | 
< 10 nM | < 10 nM | < 1 nM | 80 to 90% | A (A represents a DC90 value <10.0 nM) |  |  |  | O=C1CCC(N2Cc3c(ccc(N4CCC(CN5CCC(n6cc7cc(NC(=O)c8cnn9cccnc89)c(OCC8CC8)cc7n6)CC5)CC4)c3F)C2=O)C(=O)N1 (stereo not drawn) [Example 153] | ≥ 90% | 80 to 90% |  | 
50 to 100 nM | 50 to 100 nM | ≥ 10 nM |  | D (D represents a DC90 value ≥50 nM) |  |  |  | O=C1CCC(N2C(=O)c3ccc(N4CC[C@@H](O[C@H]5CC[C@@H](n6cc7cc(NC(=O)c8cnn9cccnc89)c(OCC8CC8)cc7n6)CC5)C4)cc3C2=O)C(=O)N1 (stereo partly drawn) [Example 425] | 70 to 80% | 70 to 80% |  | 
< 10 nM | < 10 nM | < 1 nM | ≥ 90% | A (A represents a DC90 value <10.0 nM) |  |  |  | Cn1c(=O)n(C2CCC(=O)NC2=O)c2cccc(N3CC(CN4CCC(n5cc6cc(NC(=O)c7cnn8cccnc78)c(OCC7CC7)cc6n5)CC4)C3)c21 (stereo not drawn) [Example 378, N-(6-(cyclopropylmethoxy)-2-(1-((1-(1-(2,6-dioxopiperidin-3-yl)-3-methyl-2-oxo-2,3-dihydro-1H-benzo[d]imidazol-4-yl)azetidin-3-yl)methyl)piperidin-4-yl)-2H-indazol-5-yl)pyrazolo[1,5-a]pyrimidine-3-carboxamide] | 80 to 90% | ≥ 90% |  | 
< 10 nM | < 10 nM | < 1 nM | 80 to 90% | A (A represents a DC90 value <10.0 nM) |  |  |  | O=C1CCC(N2Cc3c(ccc(N4CCC(CN5CCC(n6cc7cc(NC(=O)c8cnn9cccnc89)c(OCC(F)F)cc7n6)CC5)CC4)c3F)C2=O)C(=O)N1 (stereo not drawn) [Example 154] | 80 to 90% | ≥ 90% |  | 
< 10 nM | 10 to 50 nM | 1 to 5 nM | ≥ 90% | A (A represents a DC90 value <10.0 nM) |  |  |  | O=C1CCC(N2Cc3cc(N4CCC(CN5CCC(N6Cc7cc(NC(=O)c8cnn9cccnc89)c(N8CCN(C9CC(F)(F)C9)CC8)cc7C6=O)CC5)CC4)ccc3C2=O)C(=O)N1 (stereo not drawn) [Example 54] | < 70% | 80 to 90% |  | 
10 to 50 nM |  | 1 to 5 nM | ≥ 90% | A (A represents a DC90 value <10.0 nM) |  |  |  | CC(C)Oc1cc2nn(C3CCN(CC4(F)CN(c5ccc6c(c5)C(=O)N(C5CCC(=O)NC5=O)C6=O)C4)CC3)cc2cc1NC(=O)c1cnn2cccnc12 (stereo not drawn) [Example 265, N-[2-[1-[[1-[2-(2,6-dioxo-3-piperidyl)-1,3-dioxo-isoindolin-5-yl]-3-fluoro-azetidin-3-yl]methyl]-4-piperidyl]-6-isopropoxy-indazol-5-yl]pyrazolo[1,5-a]pyrimidine-3-carboxamide] | ≥ 90% |  |  | 
 |  | < 1 nM | ≥ 90% | A (A represents a DC90 value <10.0 nM) |  |  |  | CC(C)Oc1cc2c(cc1NC(=O)c1cnn3cccnc13)CN(C1CCN(C3(C)CN(c4ccc5c(c4)CN(C4CCC(=O)NC4=O)C5=O)C3)CC1)C2=O (stereo not drawn) [Example 275] |  |  |  | 

Continued, compound first:

Compound | IC50 (IL6 [1]; Homo sapiens, PBMC, 24 h) | IC50 (IL6 [2]; PBMC) | DC50 (IRAK-4) | Dmax (IRAK-4) | PBMC DC90 (IRAK-4) | IC50 (IL6 [1]) | IC50 (IL6 [2]) | PBMC Dmax (IRAK-4) | Dmax (IL6 [1]; Homo sapiens, PBMC, 24 h) | Dmax (IL6 [2]; PBMC) | LPS Stim IL6 inhibition Dmax (IL6 [1]) | R848 stim IL6 inhibition Dmax (IL6 [2])
Cn1c(=O)n(C2CCC(=O)NC2=O)c2cccc(N3CC(N(C)[C@H]4CC[C@H](n5cc6cc(NC(=O)c7cnn8cccnc78)c(OCC7CC7)cc6n5)CC4)C3)c21 (stereo partly drawn) [Example 346] | < 10 nM | 10 to 50 nM | 1 to 5 nM | 80 to 90% | B (B represents a DC90 value ≥10.0 nM and <25.0 nM) |  |  |  | 80 to 90% | ≥ 90% |  | 
O=C1CCC(N2Cc3ccc(N4CCC(CN5CCC(N6Cc7cc(NC(=O)c8cnn9cccnc89)c(OCC(F)F)cc7C6=O)CC5)CC4)cc3C2=O)C(=O)N1 (stereo not drawn) [Example 45] | 10 to 50 nM | < 10 nM | 1 to 5 nM | ≥ 90% | A (A represents a DC90 value <10.0 nM) |  |  |  | 70 to 80% | ≥ 90% |  | 
CC(C)Oc1cc2c(cc1NC(=O)c1cnn3cccnc13)CN([C@H]1CC[C@H](N(C)C3CN(c4cccc5c4n(C)c(=O)n5C4CCC(=O)NC4=O)C3)CC1)C2=O (stereo partly drawn) [Example 384, N-(2-((1r,4r)-4-((1-(1-(2,6-dioxopiperidin-3-yl)-3-methyl-2-oxo-2,3-dihydro-1H-benzo[d]imidazol-4-yl)azetidin-3-yl)(methyl)amino)cyclohexyl)-6-isopropoxy-1-oxoisoindolin-5-yl)pyrazolo[1,5-a]pyrimidine-3-carboxamide] |  |  | < 1 nM |  | A (A represents a DC90 value <10.0 nM) | ≥ 100 nM | < 10 nM | A (A represents a Dmax value ≥90) |  |  | C (C represents a Ymax value ≥70 and <80) | A (A represents a Ymax value ≥90)
O=C1CCC(N2C(=O)c3ccc(N4CCN(C[C@H]5CC[C@H](n6cc7cc(NC(=O)c8cnn9cccnc89)c(OCC(F)F)cc7n6)CC5)CC4)cc3C2=O)C(=O)N1 (stereo partly drawn) [Example 430] | 10 to 50 nM | 10 to 50 nM | 1 to 5 nM | ≥ 90% | A (A represents a DC90 value <10.0 nM) |  |  |  | 70 to 80% | ≥ 90% |  | 
O=C1CCC(N2Cc3c(ccc(N4CCC(CN5CCC(N6Cc7cc(NC(=O)c8cnn9cccnc89)c(N8CCN(C9CC(F)(F)C9)CC8)cc7C6=O)CC5)CC4)c3F)C2=O)C(=O)N1 (stereo not drawn) [Example 55] | < 10 nM | 10 to 50 nM | < 1 nM | ≥ 90% | A (A represents a DC90 value <10.0 nM) |  |  |  | < 70% | ≥ 90% |  | 
O=C1CCC(N2Cc3cc(N4CCC(CN5CCC(n6cc7cc(NC(=O)c8cnn9cccnc89)c(N8CCN(CC(F)F)CC8)cc7n6)CC5)CC4)ccc3C2=O)C(=O)N1 (stereo not drawn) [Example 157] | 10 to 50 nM | 10 to 50 nM | < 1 nM | ≥ 90% | A (A represents a DC90 value <10.0 nM) |  |  |  | 70 to 80% | ≥ 90% |  | 
COc1cc2nn(C3CCN(CC4(F)CN(c5ccc6c(c5)C(=O)N(C5CCC(=O)NC5=O)C6=O)C4)CC3)cc2cc1NC(=O)c1cnn2ccc(C3C[C@H]4C[C@@H]3CO4)nc12 (stereo partly drawn) [Example 238] |  |  | 1 to 5 nM | 70 to 80% | B (B represents a DC90 value ≥10.0 nM and <25.0 nM) |  |  |  |  |  |  | 
O=C1CCC(N2C(=O)c3ccc(N4CC(F)(CN5CCC(n6cc7cc(NC(=O)c8cnn9cccnc89)c(OC8CCC8)cc7n6)CC5)C4)cc3C2=O)C(=O)N1 (stereo not drawn) [Example 196] |  |  | 1 to 5 nM | 80 to 90% | B (B represents a DC90 value ≥10.0 nM and <25.0 nM) |  |  |  |  |  |  | 
